Reference: patent publication US20200163954A1 (Exelixis, Inc., priority 2014, published 2020)
Like-named read-outs stand apart in the source and are kept apart here.

What was measured:
Flt-4 = molecular target: T1, Flt-4 (Homo sapiens, UniProt P35916); assay: Kinase activity (EMD Millipore Kinase Profiler), Flt-4; assay type: biochemical; conditions: class symbol; read-out: Flt-4 Std (IC50)
T1 construct: purchased EMD Millipore (Kinase Profiler service)

[1] = PK parameters of cabozantinib and measured metabolites in human subjects; assay type: in vivo; conditions: for AUC(0-inf) / Cmax / Tmax / AUC(0-t) / half-life: human, plasma, oral, 140 mg/day; for half-life: read-out: t1/2, apparent terminal elimination half-life (converted)
[2] = Metabolite profiling in human plasma, urine and feces (mass balance study, [14C] cabozantinib); assay type: in vivo; conditions: for Presence in pooled fecal sample, 0-72 hours post dose / Presence in pooled fecal sample, 144-192 hours post dose: human feces; for Peak on plasma radio-chromatograms: human plasma, one subject, single 175 mg oral dose of cabozantinib (L-malate salt) with [14C] cabozantinib
Protocol: The objective of this study was to profile and identify metabolites of cabozantinib in human plasma, urine, and feces.
The plasma, urine, and fecal samples were collected from the 8 subjects for the metabolite profiling.
All samples were shipped to QPS LLC (Newark, Del.) and stored at −70° C. HPLC/tandem MS coupled with a radio flow-through detector (RFD) was used for metabolite profiling and identification for samples with sufficient levels of radioactivity.
HPLC fraction collection followed by counting with TopCount NXT™ was used for radioquantitation of plasma samples with sufficient levels of radioactivity. […] HPLC Method 1 was used for the analysis of pooled urine and fecal samples and individual plasma samples from different time points. […] HPLC Method 3 was used for pooled plasma samples.
For the investigation of co-eluting metabolites, nonradiolabeled plasma samples of six subjects were pooled, processed, and analyzed for pre-dose, 1-7, 8-96, and 120-336 hours post-dose. […] [^14C]
Radiolabeled and non-radiolabeled plasma samples were extracted employing the same method, using 1.0-2 mL plasma samples, depending on the volume available and radioactivity level of the samples. The supernatants were evaporated to dryness under a stream of nitrogen in an ambient water bath, and the residues were reconstituted in 0.35-0.5 mL of MeOH:ACN:water (10:20:70, v/v/v). The reconstituted samples were centrifuged at 15,000 rpm for 10 minutes. Aliquots of the supernatants were injected onto the HPLC system for analysis.
The radioactivity in pooled urine and reconstituted solution was counted using LSC, and the reconstitution recovery calculated. […] Each pooled urine sample was lyophilized, the residue was reconstituted in water:ACN:FA (80:20:0.1, v/v/v), and the reconstituted sample was centrifuged at 15,000 rpm for 10 min before analysis.
The supernatants were dried under a nitrogen stream, and the residues were reconstituted in water:ACN:FA (80:20:0.1, v/v/v). The reconstituted samples were centrifuged at 15,000 rpm for 10 min before analysis.
The system for metabolite profiling and identification (HPLC/MS/RFD) consisted of a HTC PAL autosampler, a Surveyor HPLC pump, a LTQ linear ion trap mass spectrometer, and a β-RAM Model 3 RFD. The data obtained by mass spectrometry and RFD were processed by Xcalibur and Laura Lite 3 software, respectively. The HPLC eluent was split between the RFD and mass spectrometer with a ratio of 3 to 1. The following are the summary of the conditions for HPLC, mass spectrometer, and RFD.
For plasma samples, percent of total radioactivity in the sample for each peak at each time point was calculated and converted to ng/mL.

KDR = molecular target: T2, KDR (Homo sapiens, UniProt P35968); assay: Kinase activity (EMD Millipore Kinase Profiler), KDR; assay type: biochemical; conditions: class symbol; read-out: KDR Std (IC50)
T2 construct: purchased EMD Millipore (Kinase Profiler service)

Flt-3 = molecular target: T3, Flt-3 (Homo sapiens, UniProt P36888); assay: Kinase activity (EMD Millipore Kinase Profiler), Flt-3; assay type: biochemical; conditions: class symbol; read-out: Flt-3 Std (IC50)
T3 construct: purchased EMD Millipore (Kinase Profiler service)
T3 sequence (P36888 27-993): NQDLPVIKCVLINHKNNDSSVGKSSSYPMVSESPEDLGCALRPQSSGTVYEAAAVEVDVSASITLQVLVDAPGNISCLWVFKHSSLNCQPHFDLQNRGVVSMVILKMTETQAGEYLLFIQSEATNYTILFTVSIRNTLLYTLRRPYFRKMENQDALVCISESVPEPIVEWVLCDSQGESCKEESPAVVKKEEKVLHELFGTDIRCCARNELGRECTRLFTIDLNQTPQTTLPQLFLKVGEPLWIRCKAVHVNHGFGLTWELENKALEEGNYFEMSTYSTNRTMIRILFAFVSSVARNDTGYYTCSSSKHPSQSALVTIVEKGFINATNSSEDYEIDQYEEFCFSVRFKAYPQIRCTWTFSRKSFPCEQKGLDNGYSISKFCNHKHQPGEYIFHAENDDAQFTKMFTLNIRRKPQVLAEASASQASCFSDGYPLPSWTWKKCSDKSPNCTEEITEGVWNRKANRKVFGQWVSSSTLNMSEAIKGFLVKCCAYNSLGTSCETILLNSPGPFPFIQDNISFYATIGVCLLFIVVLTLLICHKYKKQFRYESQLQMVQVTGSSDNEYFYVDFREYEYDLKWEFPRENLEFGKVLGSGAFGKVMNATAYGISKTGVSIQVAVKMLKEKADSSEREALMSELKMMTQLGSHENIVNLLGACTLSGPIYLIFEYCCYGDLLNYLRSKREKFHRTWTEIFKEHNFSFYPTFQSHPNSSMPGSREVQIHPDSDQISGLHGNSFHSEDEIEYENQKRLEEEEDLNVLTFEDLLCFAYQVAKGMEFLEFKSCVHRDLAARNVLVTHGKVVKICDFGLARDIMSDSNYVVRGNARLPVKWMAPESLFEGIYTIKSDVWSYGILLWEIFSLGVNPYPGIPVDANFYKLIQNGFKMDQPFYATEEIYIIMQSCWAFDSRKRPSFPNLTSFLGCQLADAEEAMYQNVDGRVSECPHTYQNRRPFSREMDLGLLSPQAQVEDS

c-Met = molecular target: T4, c-Met (Homo sapiens, UniProt P08581); assay: Kinase activity (EMD Millipore Kinase Profiler), c-Met; assay type: biochemical; conditions: class symbol; read-out: c-Met Std (IC50)
T4 construct: purchased EMD Millipore (Kinase Profiler service)

[3] = eight human subjects, cabozantinib 140 mg/day, time zero to 24 hours post dose, read-out: AUC0-24
[4] = eight human subjects, cabozantinib 140 mg/day, time zero to 72 hours post dose, read-out: AUC0-72
[5] = eight human subjects, cabozantinib 140 mg/day, time zero to last measurable concentration, read-out: AUC0-t
[6] = HPLC Method 1, single 175 mg oral dose
[7] = human urine, HPLC Method 1, single 175 mg oral dose

T4 sequence (P08581 25-1390): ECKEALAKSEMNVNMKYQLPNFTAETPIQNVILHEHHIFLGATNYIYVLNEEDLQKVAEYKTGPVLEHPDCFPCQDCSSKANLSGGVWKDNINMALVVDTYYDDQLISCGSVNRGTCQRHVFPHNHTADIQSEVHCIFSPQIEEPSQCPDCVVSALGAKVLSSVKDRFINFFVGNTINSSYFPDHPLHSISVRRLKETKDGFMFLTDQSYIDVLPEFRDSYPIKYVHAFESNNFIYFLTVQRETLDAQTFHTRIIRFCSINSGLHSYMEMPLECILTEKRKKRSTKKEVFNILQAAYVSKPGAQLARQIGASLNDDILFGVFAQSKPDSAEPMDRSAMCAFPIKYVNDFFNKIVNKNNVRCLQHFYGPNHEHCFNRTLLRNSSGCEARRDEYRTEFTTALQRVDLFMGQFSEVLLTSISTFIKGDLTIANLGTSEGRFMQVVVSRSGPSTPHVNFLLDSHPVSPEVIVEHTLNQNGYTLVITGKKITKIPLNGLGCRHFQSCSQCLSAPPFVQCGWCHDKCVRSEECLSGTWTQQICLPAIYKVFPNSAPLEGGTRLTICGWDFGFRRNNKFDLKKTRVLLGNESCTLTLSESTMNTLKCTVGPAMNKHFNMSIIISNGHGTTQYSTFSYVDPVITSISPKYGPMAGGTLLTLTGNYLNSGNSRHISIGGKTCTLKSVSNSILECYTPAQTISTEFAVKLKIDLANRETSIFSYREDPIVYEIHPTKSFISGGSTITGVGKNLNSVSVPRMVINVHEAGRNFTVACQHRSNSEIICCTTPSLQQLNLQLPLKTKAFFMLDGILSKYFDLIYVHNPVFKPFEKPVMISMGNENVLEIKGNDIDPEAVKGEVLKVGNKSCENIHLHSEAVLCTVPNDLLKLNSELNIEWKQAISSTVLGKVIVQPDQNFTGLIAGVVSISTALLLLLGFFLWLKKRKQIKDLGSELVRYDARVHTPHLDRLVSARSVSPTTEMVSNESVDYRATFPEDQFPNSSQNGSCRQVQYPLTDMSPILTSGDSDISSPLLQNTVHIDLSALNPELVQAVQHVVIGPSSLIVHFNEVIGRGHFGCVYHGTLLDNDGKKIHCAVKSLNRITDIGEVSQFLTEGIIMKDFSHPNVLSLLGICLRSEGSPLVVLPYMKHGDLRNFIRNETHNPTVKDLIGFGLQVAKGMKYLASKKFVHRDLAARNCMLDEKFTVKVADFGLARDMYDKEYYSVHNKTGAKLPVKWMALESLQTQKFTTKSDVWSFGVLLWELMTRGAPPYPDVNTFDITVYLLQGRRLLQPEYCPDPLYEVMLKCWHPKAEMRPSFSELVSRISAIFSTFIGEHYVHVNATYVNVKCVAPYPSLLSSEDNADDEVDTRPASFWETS
T2 sequence (P35968 20-1356): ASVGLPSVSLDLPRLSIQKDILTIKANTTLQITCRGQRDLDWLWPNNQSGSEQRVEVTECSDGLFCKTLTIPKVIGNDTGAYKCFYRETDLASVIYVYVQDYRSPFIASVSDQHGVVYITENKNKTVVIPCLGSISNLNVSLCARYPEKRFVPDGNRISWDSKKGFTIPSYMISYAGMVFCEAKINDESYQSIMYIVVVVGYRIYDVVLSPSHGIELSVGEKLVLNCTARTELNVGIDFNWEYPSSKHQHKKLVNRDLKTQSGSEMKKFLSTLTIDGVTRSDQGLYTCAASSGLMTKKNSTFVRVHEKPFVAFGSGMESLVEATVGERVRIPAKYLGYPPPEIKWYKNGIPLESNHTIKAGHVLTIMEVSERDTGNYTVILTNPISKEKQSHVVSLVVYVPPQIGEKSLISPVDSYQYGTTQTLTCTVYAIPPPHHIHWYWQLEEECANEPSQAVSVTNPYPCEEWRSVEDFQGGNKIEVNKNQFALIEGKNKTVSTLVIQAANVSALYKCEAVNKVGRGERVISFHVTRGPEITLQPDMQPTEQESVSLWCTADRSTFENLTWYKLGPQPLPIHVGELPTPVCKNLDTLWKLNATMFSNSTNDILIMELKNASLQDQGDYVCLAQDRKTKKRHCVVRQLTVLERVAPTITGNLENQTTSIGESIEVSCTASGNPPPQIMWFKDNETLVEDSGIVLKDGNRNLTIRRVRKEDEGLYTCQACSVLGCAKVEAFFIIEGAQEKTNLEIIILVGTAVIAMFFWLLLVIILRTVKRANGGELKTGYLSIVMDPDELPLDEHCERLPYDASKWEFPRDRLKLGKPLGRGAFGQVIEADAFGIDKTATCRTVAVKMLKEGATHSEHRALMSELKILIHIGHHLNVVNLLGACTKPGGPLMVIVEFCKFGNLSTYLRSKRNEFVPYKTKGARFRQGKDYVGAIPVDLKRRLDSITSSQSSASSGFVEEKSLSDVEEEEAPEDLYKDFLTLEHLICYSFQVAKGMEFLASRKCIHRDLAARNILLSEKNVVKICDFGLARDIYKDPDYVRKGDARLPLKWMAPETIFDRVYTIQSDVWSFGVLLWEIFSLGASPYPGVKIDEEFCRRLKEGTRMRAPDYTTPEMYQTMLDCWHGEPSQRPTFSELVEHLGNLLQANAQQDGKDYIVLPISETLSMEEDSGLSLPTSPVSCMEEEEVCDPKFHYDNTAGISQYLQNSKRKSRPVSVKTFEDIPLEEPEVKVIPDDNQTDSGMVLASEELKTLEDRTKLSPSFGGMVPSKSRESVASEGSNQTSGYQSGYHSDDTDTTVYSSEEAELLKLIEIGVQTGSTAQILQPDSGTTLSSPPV
T1 sequence (P35916 25-1363): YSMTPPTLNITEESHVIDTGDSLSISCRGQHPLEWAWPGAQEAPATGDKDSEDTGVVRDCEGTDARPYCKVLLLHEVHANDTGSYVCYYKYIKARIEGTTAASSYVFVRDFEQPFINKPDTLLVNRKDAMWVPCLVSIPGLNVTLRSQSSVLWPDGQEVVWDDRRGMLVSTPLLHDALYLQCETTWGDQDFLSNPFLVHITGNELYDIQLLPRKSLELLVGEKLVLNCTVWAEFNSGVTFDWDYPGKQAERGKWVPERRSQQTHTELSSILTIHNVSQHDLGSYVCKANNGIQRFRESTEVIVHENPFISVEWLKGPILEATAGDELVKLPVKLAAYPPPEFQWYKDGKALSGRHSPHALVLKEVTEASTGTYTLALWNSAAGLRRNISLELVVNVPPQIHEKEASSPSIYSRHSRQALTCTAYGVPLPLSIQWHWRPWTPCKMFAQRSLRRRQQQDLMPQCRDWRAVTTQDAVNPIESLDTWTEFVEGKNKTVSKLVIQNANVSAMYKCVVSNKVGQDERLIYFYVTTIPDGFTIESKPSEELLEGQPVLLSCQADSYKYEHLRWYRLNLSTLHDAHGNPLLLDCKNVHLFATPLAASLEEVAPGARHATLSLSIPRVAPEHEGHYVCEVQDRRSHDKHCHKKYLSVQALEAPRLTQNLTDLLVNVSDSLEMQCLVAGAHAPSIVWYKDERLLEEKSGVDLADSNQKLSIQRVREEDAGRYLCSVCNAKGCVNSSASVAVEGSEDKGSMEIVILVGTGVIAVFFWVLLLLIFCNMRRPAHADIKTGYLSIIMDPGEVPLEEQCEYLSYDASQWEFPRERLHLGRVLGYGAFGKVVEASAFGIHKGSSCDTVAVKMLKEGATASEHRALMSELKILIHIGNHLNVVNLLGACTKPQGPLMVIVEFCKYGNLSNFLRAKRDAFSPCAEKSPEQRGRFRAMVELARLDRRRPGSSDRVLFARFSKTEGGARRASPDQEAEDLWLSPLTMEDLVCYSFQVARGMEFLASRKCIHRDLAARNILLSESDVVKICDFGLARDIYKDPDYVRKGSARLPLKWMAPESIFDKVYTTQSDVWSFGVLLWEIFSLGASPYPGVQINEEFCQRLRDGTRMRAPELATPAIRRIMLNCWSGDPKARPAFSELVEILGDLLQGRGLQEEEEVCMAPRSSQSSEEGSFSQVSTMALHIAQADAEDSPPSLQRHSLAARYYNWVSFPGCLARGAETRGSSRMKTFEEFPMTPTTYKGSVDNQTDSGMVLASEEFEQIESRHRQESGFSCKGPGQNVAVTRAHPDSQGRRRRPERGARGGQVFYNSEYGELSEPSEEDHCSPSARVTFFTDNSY

SMILES | AUC(0-inf) [1] [ng·h/mL] | Cmax [1] [ng/mL] | Tmax [1] [h] | AUC(0-t) [1, 3] [ng·h/mL] | AUC(0-t) [1, 4] [ng·h/mL] | AUC(0-t) [1, 5] [ng·h/mL] | Presence in pooled fecal sample, 0-72 hours post dose [2, 6] | Peak on plasma radio-chromatograms [2] | half-life [1] [days] | Presence in pooled urine sample, 0-72 hours post dose [2, 7] | also measured
COc1cc2nccc(Oc3ccc(NC(=O)C4(C(=O)Nc5ccc(F)cc5)CC4)cc3)c2cc1OC [Cabozantinib, N-(4-{[6,7-bis(methyloxy)quinolin-4-yl]oxy}phenyl)-N′-(4-fluorophenyl)cyclopropane-1,1-dicarboxamide, reference compound] | 68000 ± 6910 | 1250 | 1.49 | 14300 ± 2600 | 35000 ± 6770 | 67200 ± 6880 | observed | major peaks | – | – | IC50 (Flt-4): < 50 nM; kel, apparent terminal elimination rate constant ([1]; eight human subjects, cabozantinib 140 mg/day): 0.00712 ± 0.001 h⁻¹; Presence in urine samples ([2]; human urine, all samples, single 175 mg oral dose): not observed
COc1cc2nccc(Oc3ccc(NC(=O)C4(C(=O)Nc5ccc(F)c(O)c5)CC4)cc3)c2cc1OC [Compound 13] | – | – | – | – | – | – | – | – | – | – | IC50 (KDR): < 50 nM; IC50 (Flt-3): < 50 nM; IC50 (c-Met): < 50 nM
COc1cc2nccc(Oc3ccc(N)cc3)c2cc1O [Compound 1] | – | – | – | – | – | – | – | – | – | observed | Presence in pooled urine sample, 144-192 hours post dose [2, 7]: observed; Presence in pooled urine sample, 288-336 hours post dose [2, 7]: detected
COc1cc2nccc(Oc3ccc(NC(=O)C4(C(=O)Nc5ccc(F)cc5O)CC4)cc3)c2cc1OC [Compound 16] | – | – | – | – | – | – | observed | – | – | – | IC50 (KDR): < 50 nM; IC50 (Flt-3): < 50 nM; Presence in pooled fecal sample, 144-192 hours post dose [2, 6]: observed; IC50 (c-Met): < 50 nM
COc1cc2nccc(Oc3ccc(NC(=O)C4(C(=O)O)CC4)cc3)c2cc1OC [Compound 7, 1-[4-(6,7-Dimethoxy-quinolin-4-yloxy)-phenylcarbamoyl]-cyclopropane carboxylic Acid] | – | – | – | – | – | – | observed | one of the minor peaks | – | observed | Presence in pooled fecal sample, 144-192 hours post dose [2, 6]: observed; Presence in pooled urine sample, 144-192 hours post dose [2, 7]: observed

Further lines, with some results ahead:

AUC(0-inf) [1] [ng·h/mL] | Cmax [1] [ng/mL] | Tmax [1] [h] | AUC(0-t) [1, 3] [ng·h/mL] | AUC(0-t) [1, 4] [ng·h/mL] | AUC(0-t) [1, 5] [ng·h/mL] | Presence in pooled fecal sample, 0-72 hours post dose [2, 6] | Peak on plasma radio-chromatograms [2] | half-life [1] [days] | Presence in pooled urine sample, 0-72 hours post dose [2, 7] | SMILES | also measured
10300 | 118 | 13.5 | 2030 | 5610 | 10100 | – | – | 3.72 | – | COc1cc2c(Oc3ccc(NC(=O)C4(C(=O)Nc5ccc(F)cc5)CC4)cc3)cc[n+]([O-])c2cc1OC [drawing 46] | –
6770 | 52.9 | 19 | 1080 | 3120 | 6540 | – | – | 3.83 | – | COc1cc2nccc(Oc3ccc(NC(=O)C4(C(=O)O)CC4)cc3)c2cc1OC [drawing 45] | –
– | – | – | – | – | – | – | major peaks | – | observed | COc1cc2c(Oc3ccc(NC(=O)C4(C(=O)Nc5ccc(F)cc5)CC4)cc3)cc[n+]([O-])c2cc1OC [Compound 19, Cabozantinib N-Oxide] | –
29500 | 236 | 24 | 3970 | 12600 | 28900 | – | – | 3.58 | – | COc1cc2nccc(Oc3ccc(NC(=O)C4(C(=O)Nc5ccc(F)cc5OS(=O)(=O)O)CC4)cc3)c2cc1OC [drawing 47] | –
